Columns and labels:
DPP-4 activity = conditions: healthy subjects; once-daily oral dose of ≧50 mg, multiple doses; cited from earlier work
[1] = Safety and tolerability assessments (adverse events); format: in vivo, human; conditions: patients with T2DM
Procedure: Safety and tolerability were evaluated by monitoring adverse events (AEs), laboratory tests (including blood routine, urine routine, stool routine, blood biochemical test and coagulation function), vital signs, physical examination, 12-lead electrocardiogram and other indicators. AEs were monitored and collected throughout the study. Descriptive analysis of the type and intensity of AEs were conducted according to NCICTC AE5.0.

[2] = Preliminary efficacy evaluation (FPG, 2 h PPG, HbA1c, GA); format: in vivo, human; conditions: patients with T2DM
Procedure: Blood samples for determination of fasting plasma glucose (FPG) and 2 hour postprandial plasma glucose (2 h PPG) were collected on day -2, day 7 and day 14. Additionally, blood samples for determination of glycated Hemoglobin A1C (HbA1c) and glycated Albumin (GA) were collected on day -2 and day 14. The changes of the above indexes relative to pre-treatment baseline (day -2) were evaluated and compared to investigate the preliminary efficacy of investigational product.

[3] = in vivo
From the text: A population PK/PD (PopPK/PD) model was developed to describe the relationship between cetagliptin and DPP-4 inhibition. A sequential two-step analysis approach to modeling building was implemented. First, a population PK model was developed, and then parameters were fixed to establish the PopPK/PD model. The nonlinear mixed effect modeling method was used to establish the PopPK/PD model. Model selection criteria were based on goodness-of-fit plots, objective function value (OFV, equal to −2 log-likelihood), Akaike information criteria (AIC), and precision of parameter estimates.
A total of 560 plasma concentrations of cetagliptin from 32 patients with T2DM were used for PopPK analysis. The structural model was tested using either one- or two-compartment PK models. […]
The additive error model (Equation 2), proportional error model (Equation 3), and additive and proportional error model (Equation 4) were evaluated to describe the residual variability: […]
Goodness-of-fit plots were assessed to describe the adequacy of the final PopPK/PD model, including observations vs. population predictions, observations vs. individual predictions, conditional weighted residuals (CWRES) vs. population predictions, and CWRES vs. time., A bootstrap resampling procedure was performed to assess the stability of the final PopPK/PD model. […]

plasma DPP-4 activity = target: T1, plasma DPP-4 activity (Homo sapiens, UniProt P27487); assay: Emax model of plasma concentration vs DPP-4 inhibition; format: in vivo; conditions: patients with T2DM
T1 construct: The plasma DPP-4 activity was determined using a fluorescent method with the substrate Gly-Pro-7-amide-4-methylcoumarin; from tissue; host or cells: human plasma (K2-EDTA blood from T2DM patients)
T1 sequence (P27487 39-766 limits assumed): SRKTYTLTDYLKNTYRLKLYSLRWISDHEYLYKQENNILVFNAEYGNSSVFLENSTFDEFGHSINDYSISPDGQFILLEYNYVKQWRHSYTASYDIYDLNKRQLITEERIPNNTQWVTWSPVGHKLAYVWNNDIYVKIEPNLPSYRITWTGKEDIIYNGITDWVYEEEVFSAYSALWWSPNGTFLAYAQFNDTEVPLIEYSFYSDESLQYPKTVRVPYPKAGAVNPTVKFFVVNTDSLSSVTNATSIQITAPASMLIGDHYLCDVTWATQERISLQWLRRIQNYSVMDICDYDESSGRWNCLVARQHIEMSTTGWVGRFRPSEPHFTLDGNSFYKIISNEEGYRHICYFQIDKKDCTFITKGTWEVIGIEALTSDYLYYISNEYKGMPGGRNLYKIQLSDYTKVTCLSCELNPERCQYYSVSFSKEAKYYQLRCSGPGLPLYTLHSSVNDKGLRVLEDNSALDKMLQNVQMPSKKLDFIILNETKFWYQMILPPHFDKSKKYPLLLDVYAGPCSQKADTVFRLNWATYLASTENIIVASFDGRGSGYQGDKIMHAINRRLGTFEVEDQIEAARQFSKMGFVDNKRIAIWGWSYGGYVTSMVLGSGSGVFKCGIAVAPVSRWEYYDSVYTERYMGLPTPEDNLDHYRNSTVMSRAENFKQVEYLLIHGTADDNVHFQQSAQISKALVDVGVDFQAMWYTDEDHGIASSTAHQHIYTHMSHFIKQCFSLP

plasma active GLP-1 = assay: Plasma active GLP-1 concentration change from baseline (ELISA); format: in vivo, human; conditions: patients with T2DM; for GLP-1 Baseline (value before dosing): day 1 before dosing; for increase of plasma active GLP-1 AUEC0-24h compared with placebo group: after multiple dosing; for △GLP-1 TRmax,ss / △GLP-1 TRmax: median (range)
Procedure: Blood samples for GLP-1 activity evaluation were collected at the same time points as for PK. 2 mL blood samples were collected for GLP-1 activity detection (20 μL DPP-4i was added to blood-collecting tubes beforehand). The tubes were placed on ice until centrifugation. The blood samples were centrifuged at 2-8°C, 1500 g for 10 minutes within 1 hour after blood collection. After centrifugation, the blood samples were evenly divided into two aliquots and stored at -80 ± 10°C. Plasma active GLP-1 concentrations were determined using a validated ELISA method. Linear calibration curves were obtained in the concentration range of 0.017-276 pM ([31]).
The change of GLP-1 concentration from baseline (△GLP-1) was calculated as follows:
Δ [GLP-1] = [GLP-1] (t) - [GLP-1] (0)
The calculated parameters for GLP-1 activity were as follows: the baseline GLP-1 value before dosing (Baseline), Rmax, TRmax, AUEC0-t, AUEC0-24h, GLP-1 concentration change at 2 h after lunch (△GLP-1-6h), GLP-1 concentration change at 2 h after dinner (△GLP-1-12h), Rmin on day 14, and the average response on day 14 (Ravg).

[4] = cetagliptin group (50 or 100 mg, n=20) / sitagliptin group (100 mg, n=8), 14 days

For `C[C@@H]1c2cnc(C(F)(F)F)n2CCN1C(=O)C[C@H](N)Cc1cc(F)c(F)cc1F.O=P(O)(O)O` [Cetagliptin, cetagliptin], the “sustained DPP-4 inhibition” value (DPP-4 activity) is listed as at least 80%, the “intensity of drug-related adverse events” value ([1]; cetagliptin 50 or 100 mg, sitagliptin 100 mg, 14 days) is listed as “mild” and the “number of drug-related AEs” value [1, 4] is listed as 3 AEs. For the same compound, the “number of subjects reporting drug-related AEs” value [1, 4] was 2 subjects, the “serious AEs or withdrawals due to AEs” value ([1]; once daily for 14 days) was “no serious AEs or withdraws due to AEs” and the “change of FPG relative to baseline (day -2)” value ([2]; 50 mg once daily, day 7) was 0.49 mmol/L. For the same compound, the “mean change value of 2h postprandial blood glucose concentration compared with baseline” value (shortened to “mean change value”) ([2]; 50 mg once daily, day 7, 2 h after breakfast) was -1.54 ± 2.25 mmol/L, the “mean change value” value ([2]; 50 mg once daily, day 7, 2 h after lunch) was -0.29 ± 2.34 mmol/L and the “mean change value” value ([2]; 50 mg once daily, day 7, 2 h after supper) was -1.30 ± 2.50 mmol/L. The “change of FPG relative to baseline (day -2)” value ([2]; 50 mg once daily, day 14) was 0.56 mmol/L, the “change of GA relative to baseline (day -2)” value ([2]; 50 mg once daily, day 14) was 0.53% and the “decrease of HbA1c compared with baseline” value ([2]; 50 mg once daily, day 14) was 0.47%. For the same compound, the “mean change value” value ([2]; 50 mg once daily, day 14, 2 h after lunch) was -0.66 ± 2.26 mmol/L, the “mean change value” value ([2]; 50 mg once daily, day 14, 2 h after supper) was -2.64 ± 2.07 mmol/L and the “decrease of 2 h PPG compared with baseline” value ([2]; 50 mg once daily, day 14 after dinner) was 2.64 mmol/L. For the same compound, the “change of FPG relative to baseline (day -2)” value ([2]; 100 mg once daily, day 7) was -0.11 mmol/L, the “mean change value” value ([2]; 100 mg once daily, day 7, 2 h after breakfast) was -0.54 ± 2.47 mmol/L and the “mean change value” value ([2]; 100 mg once daily, day 7, 2 h after lunch) was -0.61 ± 2.16 mmol/L. For the same compound, the “mean change value” value ([2]; 100 mg once daily, day 7, 2 h after supper) was 1.64 ± 3.22 mmol/L, the “change of FPG relative to baseline (day -2)” value ([2]; 100 mg once daily, day 14) was 0.43 mmol/L and the “change of GA relative to baseline (day -2)” value ([2]; 100 mg once daily, day 14) was -1.70%. For the same compound, the “decrease of HbA1c compared with baseline” value ([2]; 100 mg once daily, day 14) was 0.35%, the “mean change value” value ([2]; 100 mg once daily, day 14, 2 h after lunch) was 1.16 ± 2.05 mmol/L and the “mean change value” value ([2]; 100 mg once daily, day 14, 2 h after supper) was 2.56 ± 2.48 mmol/L. The “tvCl2 (typical value of intercompartment clearance)” value [3] was 9.671 L/h, the “tvV (typical value of volume of central compartment distribution)” value [3] was 8.668 L and the “EC50 (plasma concentration producing half the maximum DPP-4 inhibition)” value (plasma DPP-4 activity; Emax model) was 5.37 ng/mL. The “Emax (maximum DPP-4 inhibition, Emax model)” value (plasma DPP-4 activity; plasma concentration vs DPP-4 inhibition) was 92.47%, the “GLP-1 Baseline (value before dosing)” value (plasma active GLP-1; 50 mg group) was 0.491 ± 0.815 pM and the “accumulation ratios of Rmax and AUEC0-24 h for plasma active GLP-1” value (plasma active GLP-1; 50 mg once daily) was “about 1.5”. For the same compound, the “increase of plasma active GLP-1 AUEC0-24h compared with placebo group” value (plasma active GLP-1; 50 mg once daily) was 2.20 fold, the “R0h,ss (baseline plasma active GLP-1 on day 14)” value (from here on “R0h,ss”) (plasma active GLP-1; 50 mg oral once daily, day 14) was 1.787 ± 1.046 pM and the “△GLP-1-6h (change at 2 h after lunch)” value (plasma active GLP-1; 50 mg oral once daily, day 14) was 4.145 ± 0.920 pM. The “△GLP-1-12h (change at 2 h after dinner)” value (plasma active GLP-1; 50 mg oral once daily, day 14) was 3.880 ± 1.641 pM, the “△GLP-1 AUEC0-24h” value (plasma active GLP-1; 50 mg oral once daily, day 14) was 57.8 ± 22.7 pM·h and the “△GLP-1 Ravg,ss” value (plasma active GLP-1; 50 mg oral once daily, day 14) was 2.408 ± 0.944 pM. For the same compound, the “△GLP-1 Rmax,ss” value (plasma active GLP-1; 50 mg oral once daily, day 14) was 5.891 ± 1.692 pM, the “R0h,ss” value (plasma active GLP-1; 50 mg oral once daily, day 14, listed as cetagliptin) was 1.787 pM and the “△GLP-1 TRmax,ss” value (plasma active GLP-1; 50 mg oral once daily, day 14) was 5.00 (5.00-12.00) h. The “△GLP-1-6h (change at 2 h after lunch)” value (plasma active GLP-1; 50 mg oral, day 1) was 2.457 ± 1.135 pM, the “△GLP-1-12h (change at 2 h after dinner)” value (plasma active GLP-1; 50 mg oral, day 1) was 2.887 ± 0.981 pM and the “△GLP-1 AUEC0-24h” value (plasma active GLP-1; 50 mg oral, day 1) was 42.6 ± 10.0 pM·h. The “△GLP-1 Rmax” value (plasma active GLP-1; 50 mg oral, day 1) was 3.866 ± 1.031 pM, the “△GLP-1 TRmax” value (plasma active GLP-1; 50 mg oral, day 1) was 5.00 (5.00-12.00) h and the “GLP-1 Baseline (value before dosing)” value (plasma active GLP-1; 100 mg group) was 0.434 ± 0.393 pM. The “accumulation ratios of Rmax and AUEC0-24 h for plasma active GLP-1” value (plasma active GLP-1; 100 mg once daily) was “about 1.5”, the “increase of plasma active GLP-1 AUEC0-24h compared with placebo group” value (plasma active GLP-1; 100 mg once daily) was 3.36 fold and the “R0h,ss” value (plasma active GLP-1; 100 mg oral once daily, day 14) was 1.858 ± 1.186 pM. For the same compound, the “△GLP-1-6h (change at 2 h after lunch)” value (plasma active GLP-1; 100 mg oral once daily, day 14) was 7.006 ± 3.171 pM, the “△GLP-1-12h (change at 2 h after dinner)” value (plasma active GLP-1; 100 mg oral once daily, day 14) was 5.648 ± 1.810 pM and the “△GLP-1 AUEC0-24h” value (plasma active GLP-1; 100 mg oral once daily, day 14) was 88.2 ± 29.6 pM·h. For the same compound, the “△GLP-1 Ravg,ss” value (plasma active GLP-1; 100 mg oral once daily, day 14) was 3.673 ± 1.234 pM, the “△GLP-1 Rmax,ss” value (plasma active GLP-1; 100 mg oral once daily, day 14) was 7.868 ± 2.565 pM and the “R0h,ss” value (plasma active GLP-1; 100 mg oral once daily, day 14, listed as cetagliptin) was 1.858 pM. For the same compound, the “△GLP-1 TRmax,ss” value (plasma active GLP-1; 100 mg oral once daily, day 14) was 6.00 (5.00-12.00) h, the “△GLP-1-6h (change at 2 h after lunch)” value (plasma active GLP-1; 100 mg oral, day 1) was 4.269 ± 2.232 pM and the “△GLP-1-12h (change at 2 h after dinner)” value (plasma active GLP-1; 100 mg oral, day 1) was 3.600 ± 2.410 pM. For the same compound, the “△GLP-1 AUEC0-24h” value (plasma active GLP-1; 100 mg oral, day 1) was 63.1 ± 34.3 pM·h, the “△GLP-1 Rmax” value (plasma active GLP-1; 100 mg oral, day 1) was 6.026 ± 3.823 pM and the “△GLP-1 TRmax” value (plasma active GLP-1; 100 mg oral, day 1) was 5.00 (5.00-12.00) h.
